Data on nine molecules can be found in ChEMBL document CHEMBL3045268, “Synthesis, anticancer, and molecular docking studies of pyranone derivatives” (Med Chem Res, 2013).

In data set [1] the test system is Mus musculus. Briefly: Toxicity in Mus musculus (mouse) transplanted with mouse EAC cells assessed as increase in hemoglobin level at 75 mg/kg, ip measured on day 13 post tumor implantation (reference value: 7.5 +/- 0.01 g%). The format is organism-based, Ehrlich. The settings on record: in vivo. Set-up: dose 75 mg/kg, route intraperitoneal.
For data set [2], the system named is Mus musculus. Put plainly: Toxicity in Mus musculus (mouse) transplanted with mouse EAC cells assessed as effect on WBC level measured per 10^3 cells at 75 mg/kg, ip on day 13 post tumor implantation (reference value: 19.49 +/- 0.26 mm3). The data set is classed as organism-based, Ehrlich. On the set-up: dose 75 mg/kg, route intraperitoneal. The settings on record: in vivo.

In data set [3] the test system is Mus musculus. Put plainly: Toxicity in Mus musculus (mouse) transplanted with mouse EAC cells assessed as effect on neutrophils level at 75 mg/kg, ip measured on day 13 post tumor implantation (reference value: 60.4 +/- 1.5%). The data set is classed as organism-based, Ehrlich. Set-up: dose 75 mg/kg, route intraperitoneal. As to conditions: in vivo.
Data set [4] in a line: Antitumor activity against Mus musculus (mouse) EAC cells transplanted in mouse assessed as decrease in body weight at 75 mg/kg, ip measured up to 11 days relative to vehicle-treated control. The data set is classed as functional, Ehrlich. Set-up: scale not given: the % may be the effect or the level left. The settings on record: route intraperitoneal.
For data set [5], the system named is Mus musculus. Put plainly: Toxicity in Mus musculus (mouse) transplanted with mouse EAC cells assessed as effect on RBC level at 75 mg/kg, ip measured on day 13 post tumor implantation (reference value: 3.95 +/- 0.32 million/mm3). The data set is classed as organism-based, Ehrlich. Set-up: dose 75 mg/kg, route intraperitoneal. The settings on record: in vivo.

Data set [6] concerns Mus musculus. Put plainly: Toxicity in Mus musculus (mouse) transplanted with mouse EAC cells assessed as effect on lymphocytes level at 75 mg/kg, ip measured on day 13 post tumor implantation (reference value: 35.8 +/- 1.15%). The format is organism-based, Ehrlich. Set-up: dose 75 mg/kg, route intraperitoneal. As to conditions: in vivo.
Data set [7] relates to Mus musculus. Put plainly: Toxicity in Mus musculus (mouse) transplanted with mouse EAC cells assessed as effect on monocytes level at 75 mg/kg, ip measured on day 13 post tumor implantation (reference value: 1.4 +/- 0.24%). The data set is classed as organism-based, Ehrlich. Set-up: dose 75 mg/kg, route intraperitoneal. As to conditions: in vivo.
Data set [8] in a line: Antitumor activity against Mus musculus (mouse) EAC cells transplanted in mouse assessed as increase in life span at 75 mg/kg, ip relative to vehicle-treated control. The format is functional, Ehrlich. As to conditions: route intraperitoneal.
Data set [9] in a line: Antitumor activity against Mus musculus (mouse) EAC cells transplanted in mouse assessed as increase in life span at 20 mg/kg, ip relative to vehicle-treated control. The data set is classed as functional, Ehrlich. The settings on record: route intraperitoneal.
For data set [10], the system named is Mus musculus. Briefly: Toxicity in Mus musculus (mouse) transplanted with mouse EAC cells assessed as effect on neutrophils level at 20 mg/kg, ip measured on day 13 post tumor implantation (reference value: 60.4 +/- 1.5%). The format is organism-based, Ehrlich. Set-up: dose 20 mg/kg, route intraperitoneal. The settings on record: in vivo.
Data set [11] concerns Mus musculus. Put plainly: Toxicity in Mus musculus (mouse) transplanted with mouse EAC cells assessed as effect on WBC level measured per 10^3 cells at 20 mg/kg, ip on day 13 post tumor implantation (reference value: 19.49 +/- 0.26 mm3). The data set is classed as organism-based, Ehrlich. Set-up: dose 20 mg/kg, route intraperitoneal. The settings on record: in vivo.
Data set [12] relates to Mus musculus. Briefly: Toxicity in Mus musculus (mouse) transplanted with mouse EAC cells assessed as effect on lymphocytes level at 20 mg/kg, ip measured on day 13 post tumor implantation (reference value: 35.8 +/- 1.15%). The format is organism-based, Ehrlich. On the set-up: dose 20 mg/kg, route intraperitoneal. As to conditions: in vivo.
In data set [13] the test system is Mus musculus. Briefly: Toxicity in Mus musculus (mouse) transplanted with mouse EAC cells assessed as effect on monocytes level at 20 mg/kg, ip measured on day 13 post tumor implantation (reference value: 1.4 +/- 0.24%). The data set is classed as organism-based, Ehrlich. Set-up: dose 20 mg/kg, route intraperitoneal. The settings on record: in vivo.
In data set [14] the test system is Mus musculus. Briefly: Toxicity in Mus musculus (mouse) transplanted with mouse EAC cells assessed as increase in hemoglobin level at 20 mg/kg, ip measured on day 13 post tumor implantation (reference value: 7.5 +/- 0.01 g%). The data set is classed as organism-based, Ehrlich. On the set-up: dose 20 mg/kg, route intraperitoneal. As to conditions: in vivo.
The test system of data set [15] is Mus musculus. Briefly: Toxicity in Mus musculus (mouse) transplanted with mouse EAC cells assessed as effect on RBC level at 20 mg/kg, ip measured on day 13 post tumor implantation (reference value: 3.95 +/- 0.32 million/mm3). As to conditions: in vivo. Set-up: dose 20 mg/kg, route intraperitoneal. The data set is classed as organism-based, Ehrlich.

For `Cc1cc(O)c(-c2csc(NC(=O)CN3CCN(c4ccc(F)cc4)CC3)n2)c(=O)o1`, the Activity in data set [1] was 11.96 g%; in data set [2], 17.6 10^3 cells/mm3; in data set [3] it was 66%; in data set [4], 48.32%; in data set [5], 17.29 million/mm3; in [6] it was 31%. For the same molecule, the Activity in [7] was 3%; in data set [8], -39.58%.

As for `Cc1cc(O)c(-c2csc(NC(=O)CN3CCN(C(=O)c4ccco4)CC3)n2)c(=O)o1`, the Activity was 13.21 g% in data set [1]; 48.6 10^3 cells/mm3 in [2]; 34% in data set [3]; 46.59% in data set [4]; 6.28 million/mm3 in [5]; 62% in data set [6]. The Activity is reported as 4.6% in [7] and -12.5% in [8].

For the molecule `COc1cc(C2SCC(=O)N2c2nc(-c3c(O)cc(C)oc3=O)cs2)cc(OC)c1OC` (stereo unspecified), the Activity was 10.48 g% in data set [1]; 19.2 10^3 cells/mm3 in [2]; 58.2% in data set [3]; -1.047% in data set [4]; 17.78 million/mm3 in data set [5]; 39.4% in [6]. Also, the Activity is reported as 2% in data set [7] and -1.04% in [8].

Take `O=c1[nH]cc(F)c(=O)[nH]1` [FLUOROURACIL]: the Activity is reported as 57.29% in data set [9]; 27.8% in [10]; 15.6 mm3 in [11]; 71% in [12]; 1.2% in data set [13]; 13.99 g% in [14]. In data set [15], the Activity is 4.67 million/mm3.

Regarding `Cc1cc(O)c(-c2csc(N3C(=O)CSC3c3ccc(Cl)cc3)n2)c(=O)o1` (stereo unspecified), the Activity in data set [1] is 8.54 g%; in data set [2], 18.2 10^3 cells/mm3; in data set [3], 52.2%; in data set [4], 49.73%; in data set [5], 2.76 million/mm3; in data set [6] it was 44%. For the same molecule, the figures for the Activity in [7] and in data set [8] were 3% and 20.83%, respectively.

`COc1ccccc1N1CCN(CC(=O)Nc2nc(-c3c(O)cc(C)oc3=O)cs2)CC1`: the Activity in [1] is 12.52 g%; in data set [2], 15.7 10^3 cells/mm3; in [3], 25%; in [4], 58.11%; in [5], 4.12 million/mm3; in data set [6] it was 70%. Further, the Activity was 4.8% in data set [7] and 27.08% in data set [8].

With `Cc1cc(O)c(-c2csc(NC(=O)CN3CCN(C)CC3)n2)c(=O)o1`, the Activity in [1] was 10.64 g%; in data set [2], 19.6 10^3 cells/mm3; in data set [3], 63.2%; in data set [4] it was -1.007%; in data set [5], 5 million/mm3; in [6], 35.4%. Also, the values for the Activity in [7] and in data set [8] were 1.4% and -1.04%, respectively.

Consider `Cc1cc(O)c(-c2csc(N3C(=O)CSC3c3cccc([N+](=O)[O-])c3)n2)c(=O)o1` (stereo unspecified), for which the Activity is 11.35 g% in data set [1]; 33.9 10^3 cells/mm3 in data set [2]; 63.2% in data set [3]; 33.5% in [4]; 19.07 million/mm3 in [5]; 32% in data set [6]. In addition, the Activity is 4% in data set [7] and -23.95% in [8].

Turning to `Cc1cc(O)c(-c2csc(N3C(=O)CSC3c3ccc(O)cc3)n2)c(=O)o1` (stereo unspecified), the Activity in [1] is 13.08 g%; in [2] it was 16.6 10^3 cells/mm3; in [3], 34%; in [4] it was 61.78%; in [5], 5.63 million/mm3; in [6], 61%. In addition, the figures for the Activity in [7] and in [8] were 4.8% and 34.37%, respectively.
